Data reported in US6525001B1, “Substituted pyrimidine and pyridine herbicides” (Mid-American Commercialization Corporation, priority 1997, dated 2003).

What was measured:
Test in all cases: Test B pre-/postemergence
Assay type in all cases: in vivo
Design in all cases: key: 0 is no effect; 10 is complete control
[1] = system: bedstraw (Galium aparine); details: for Bedstraw plant response rating: Preemergence
Text: (§1) Seeds of bedstraw (Galium aparine), blackgrass (Alopecurus myosuroides), broadleaf signalgrass (Brachiaria decumbens), cocklebur (Xanthium strumarium), corn (Zea mays), crabgrass (Digitaria sanguinalis), giant foxtail (Setaria faberii), lambsquarters (Chenopodium album), momingglory (Ipomoea hederacea), pigweed (Amaranthus retroflexus), rape (Brassica napus), soybean (Glycine max), sugar beet (Beta vulgaris), velvetleaf (Abutilon theophrasti), wheat (Triticum aestivum), wild oat (Avena fatua) and purple nutsedge (Cyperus rotundus) tubers were planted and treated preemergence with test chemicals formulated in a non-phytotoxic solvent mixture which included a surfactant.
(§2) At the same time, these crop and weed species were also treated with postemergence applications of test chemicals formulated in the same manner. Plants ranged in height from 2 to 18 cm (1- to 4-leaf stage) for postemergence treatments. Plant species in the flood test consisted of rice (Oryza sativa), smallflower flatsedge (Cyperus difformis), duck salad (Heteranthera limosa) and bamyardgrass (Echinochloa crus-galli) grown to the 2-leaf stage for testing. Treated plants and controls were maintained in a greenhouse for twelve to sixteen days, after which all species were compared to controls and visually evaluated. Plant response ratings, summarized in Table B, are based on a scale of 0 to 10 where 0 is no effect and 10 is complete control. A dash (−) response means no test result.

[2] = system: blackgrass (Alopecurus myosuroides); details: for Blackgrass plant response rating: Preemergence
Text: as §1, §2

[3] = system: broadleaf signalgrass (Brachiaria decumbens); details: for B. signalgrass plant response rating: Preemergence
Text: as §1, §2

[4] = system: cocklebur (Xanthium strumarium); details: for Plant response rating, Cocklebur: Postemergence; for Cocklebur plant response rating: Preemergence
Text: as §1, §2

corn (Zea mays) = details: for Corn plant response rating: Preemergence
Text: as §1, §2

[5] = system: crabgrass (Digitaria sanguinalis); details: for Crabgrass plant response rating: Preemergence
Text: as §1, §2

[6] = system: giant foxtail (Setaria faberii)
Text: as §1, §2

[7] = system: momingglory (Ipomoea hederacea)
Text: as §1, §2

[8] = system: pigweed (Amaranthus retroflexus)
Text: as §1, §2

[9] = Rate 250 g/ha, Postemergence (so in the source)

Cc1cnc(-c2ccc(Cl)cc2)nc1Cc1cccc(C(F)(F)F)c1 [Compound 28]
5: Plant response rating, Blackgrass ([2]; Rate 125 g/ha, Postemergence) | Blackgrass plant response rating ([2]; Rate 125 g/ha) | Plant response rating, B. signalgrass ([3]; Rate 125 g/ha, Postemergence) | B. signalgrass plant response rating ([3]; Rate 125 g/ha) | Redroot pigweed plant response rating ([8]; Rate 62 g/ha, Preemergence)
8: Plant response rating, Bedstraw ([1]; Rate 125 g/ha, Postemergence) | Plant response rating, Bedstraw ([1]; Rate 250 g/ha, Postemergence) | Plant response rating, Bedstraw [1, 9] | Plant response rating, Blackgrass ([2]; Rate 250 g/ha, Postemergence) | Plant response rating, Cocklebur ([4]; Rate 125 g/ha) | Plant response rating, Cocklebur ([4]; Rate 250 g/ha) | Plant response rating, Redroot pigweed ([8]; Rate 62 g/ha, Postemergence)
2: Plant response rating, Bedstraw ([1]; Rate 62 g/ha, Postemergence) | Bedstraw plant response rating ([1]; Rate 62 g/ha) | Blackgrass plant response rating ([2]; Rate 62 g/ha) | B. signalgrass plant response rating ([3]; Rate 62 g/ha) | Plant response rating, Corn (corn (Zea mays); Rate 62 g/ha, Postemergence) | Crabgrass plant response rating ([5]; Rate 62 g/ha) | Morningglory plant response rating ([7]; Rate 62 g/ha, Preemergence) | Morningglory plant response rating ([7]; Rate 125 g/ha, Preemergence)
1: Plant response rating, Corn (corn (Zea mays); [9])
0: Cocklebur plant response rating ([4]; Rate 62 g/ha) | Cocklebur plant response rating ([4]; Rate 125 g/ha) | Corn plant response rating (corn (Zea mays); Rate 62 g/ha) | Corn plant response rating (corn (Zea mays); Rate 125 g/ha)
6: Plant response rating, Blackgrass [2, 9] | Redroot pigweed plant response rating ([8]; Rate 125 g/ha, Preemergence)
3: Plant response rating, Corn (corn (Zea mays); Rate 125 g/ha, Postemergence) | Plant response rating, Crabgrass ([5]; Rate 62 g/ha, Postemergence) | Plant response rating, Giant foxtail ([6]; Rate 62 g/ha, Postemergence) | Plant response rating, Morningglory ([7]; Rate 62 g/ha, Postemergence) | Morningglory plant response rating ([7]; Rate 125 g/ha, Postemergence) | Plant response rating, Morningglory ([7]; Rate 250 g/ha, Postemergence) | Plant response rating, Morningglory [7, 9]
9: Plant response rating, B. signalgrass ([3]; Rate 250 g/ha, Postemergence) | Plant response rating, B. signalgrass ([3]; Rate 250 g/ha, Postemergence as printed in head r139 (second section for compounds 26-50)) | Plant response rating, Crabgrass ([5]; Rate 125 g/ha, Postemergence) | Giant foxtail plant response rating ([6]; Rate 125 g/ha, Preemergence) | Plant response rating, Giant foxtail ([6]; Rate 250 g/ha, Postemergence) | Redroot pigweed plant response rating ([8]; Rate 125 g/ha, Postemergence)
10: Plant response rating, Crabgrass ([5]; Rate 250 g/ha, Postemergence) | Plant response rating, Crabgrass [5, 9] | Plant response rating, Giant foxtail [6, 9] | Plant response rating, Redroot pigweed ([8]; Rate 250 g/ha, Postemergence)
7: Plant response rating, Cocklebur ([4]; Rate 62 g/ha) | Plant response rating, Redroot pigweed [8, 9]
4: Bedstraw plant response rating ([1]; Rate 125 g/ha) | Plant response rating, Blackgrass ([2]; Rate 62 g/ha, Postemergence) | Plant response rating, B. signalgrass ([3]; Rate 62 g/ha, Postemergence) | Plant response rating, Corn (corn (Zea mays); Rate 250 g/ha, Postemergence) | Crabgrass plant response rating ([5]; Rate 125 g/ha) | Giant foxtail plant response rating ([6]; Rate 62 g/ha, Preemergence) | Giant foxtail plant response rating ([6]; Rate 125 g/ha, Postemergence)
